Some results are limits rather than exact numbers.

For the experiment, the system named is HBV. Description: HBV infection in HepG2-NTCP cells (HBeAg AlphaLISA in supernatants). In kind it is cell-based. The settings on record: Hepatitis B virus, 192 h; HBV infection of HepG2-NTCP cells; HBeAg in supernatants at day 8 post infection; read-out: Cellular EC50. The protocol: HepG2-NTCP A3 cells were maintained in DMEM media supplemented with GlutaMAX™ 10% fetal bovine serum, 1% penicillin/streptomycin, and 5 μg/mL puromycin at 37° C. in a humidified atmosphere with 5% CO2 in a collagen-coated tissue culture flask.
HepG2-NTCP cells were seeded in 384 well plate containing 16,000 cells/well two days prior to the infection. On the day of infection, compounds were 3-fold serially diluted in DMSO and pre-incubated with HepG2-NTCP cells for two hours before purified HBV addition. HBV infection was carried out at 2000 GE/cell with 4% PEG, and the final concentration of DMSO is 0.5%. On day one post infection, HBV-containing media was aspirated, cells were washed once with PBS and then maintained in 2.5% DMSO containing media for the remainder of the assay.
Supernatants from infected HepG2-NTCP cells were collected at day 8 post infection, and the amount of viral antigen HBeAg was measured by HBeAg AlphaLISA detection kit (PerkinElmer) following the manufacturer's recommended protocol. Irrespective of readout, compound concentrations that reduce viral product accumulation in supernatants by […] relative to DMSO controls (EC50) are reported. EC50 ranges are as follows: A<0.1 μM; B 0.1-1 μM; C>1 μM.
In general terms: Bead proximity is the source of the signal in Alpha formats.
As usually defined, the EC50 is the concentration at which the effect is half-maximal. `CN1[C@H](C2CCC(F)(F)CC2)CN(c2ccccc2)c2cc(Cl)c(-c3ccc(F)c(C(=O)O)c3)cc2S1(=O)=O` [Example 27]: the EC50 is 100 to 1000 nM. For the compound `CC(C)C[C@@H]1CN(c2ccccc2)c2cc(N3CCc4ccccc43)c(-c3ccc(Cl)c(C(=O)O)c3)cc2S(=O)(=O)N1C` [Example 551], the EC50 lay in the range of 100 to 1000 nM.

As to `CC(C)CC1CN(C2CCCC2)c2cc(Cl)c(-c3cccc(C(=O)O)c3)cc2S(=O)(=O)N1C` (stereo not shown) [Example 326, 3-(7-chloro-5-cyclopentyl-3-isobutyl-2-methyl-1,1-dioxido-2,3,4,5-tetrahydrobenzo[f][1,2,5]thiadiazepin-8-yl)benzoic acid], the EC50 was in the range of 100 to 1000 nM.

`CC(C)C[C@@H]1CN(c2ccccc2)c2cc(N(C)c3cccc(F)c3)c(-c3ccc(Cl)c(C(=O)O)c3)cc2S(=O)(=O)N1C` [Example 555]: the EC50 lay within 100 to 1000 nM.

Take `Cc1cc(F)cc(Oc2cc3c(cc2-c2ccc(F)c(C(=O)O)c2)S(=O)(=O)N(C)[C@H](C2CCCCC2)CN3c2ccccc2)c1` [Example 412]: the EC50 was less than 100 nM.

In the case of `CC(C)C[C@@H]1CN(c2ccccc2)c2cc(Cl)c(-c3ccc(F)c(C(=O)O)c3)cc2S(=O)(=O)N1C` [Example 59, (R)-5-(7-chloro-3-isobutyl-2-methyl-1,1-dioxido-5-phenyl-2,3,4,5-tetrahydrobenzo[f][1,2,5]thiadiazepin-8-yl)-2-fluorobenzoic acid], the EC50 is less than 100 nM. In the case of `CN1[C@H](C2CCCCC2)CN(c2ccccc2)c2cc(Cl)c(-c3cc(C(=O)O)c4ncccc4c3)cc2S1(=O)=O` [Example 210] it was 100 to 1000 nM. Next, `CCCCC1CN(c2ccccc2)c2cc(CN3CCCCC3)c(-c3ccc(F)c(C(=O)O)c3)cc2S(=O)(=O)N1C` (stereo not shown) [Example 564]: 100 to 1000 nM. In the case of `CN1[C@H](C2CCCCC2)CN(c2ccccc2)c2cc(C3CC(F)(F)C3)c(-c3ccc(F)c(C(=O)O)c3)cc2S1(=O)=O` [Example 589] it was less than 100 nM; in that of `COCCOc1cc2c(cc1-c1ccc(NC(=O)OCc3ccccc3)c(C(=O)O)c1)S(=O)(=O)N(C)[C@H](C1CCCCC1)CN2c1ccccc1` [Example 478, (R)-2-(((benzyloxy)carbonyl)amino)-5-(3-cyclohexyl-7-(2-methoxyethoxy)-2-methyl-1,1-dioxido-5-phenyl-2,3,4,5-tetrahydrobenzo[f][1,2,5]thiadiazepin-8-yl)benzoic acid], less than 100 nM; in that of `COc1cccc(N2C[C@@H](C3CCCCC3)N(C)S(=O)(=O)c3cc(-c4ccc(F)c(C(=O)O)c4)c(Cl)cc32)c1` [Example 305], 100 to 1000 nM. `CN1[C@H](C2CCCCC2)CN(c2ccccc2)c2cc(OCc3ccoc3)c(-c3ccc(F)c(C(=O)O)c3)cc2S1(=O)=O` [Example 333]: the EC50 was less than 100 nM.

As to `CC(C)C[C@@H]1CN(c2ccccc2)c2cc(Oc3cccc(Cl)c3)c(-c3ccc(F)c(C(=O)O)c3)cc2S(=O)(=O)N1C` [Example 432], the EC50 lay within 100 to 1000 nM. In the case of `CC(C)C[C@@H]1CN(c2ccccc2)c2cc(OC(C)(C)C(F)(F)F)c(-c3ccc(Cl)c(C(=O)O)c3)cc2S(=O)(=O)N1C` [Example 452], the EC50 lay in the range of 100 to 1000 nM.

As for `CC(C)COC(=O)Nc1cc(-c2cc3c(cc2F)N(c2ccccc2)C[C@@H](C2CCCCC2)N(C)S3(=O)=O)sc1C(=O)O` [Example 266], the EC50 is less than 100 nM.

As for `CC(C)C[C@@H]1CN(c2ccccc2)c2cc(C3=CCC(C)(C)CC3)c(-c3ccc(C4=CCC(C)(C)CC4)c(C(=O)O)c3)cc2S(=O)(=O)N1C` [Example 218], the EC50 lay within 100 to 1000 nM. Regarding `CSc1cc2c(cc1-c1ccc(F)c(C(=O)O)c1)S(=O)(=O)N1CC(C)(C)CC1CN2c1ccccc1` (stereo not shown) [Example 20], the EC50 was in the range of 100 to 1000 nM.

`CCCC[C@H]1CN(c2ccccc2)c2cc(N(C)C)c(-c3cccc(C(=O)O)c3)cc2S(=O)(=O)N1C` [Example 542]: the EC50 is more than 1000 nM. In the case of `CN1[C@H](C2CCCCC2)CNc2cc(OCC(F)(F)F)c(-c3ccc(Cl)c(C(=O)O)c3)cc2S1(=O)=O` [Example 477] it was 100 to 1000 nM; in that of `COc1cc(-c2cc3c(cc2Cl)N(c2ccccc2)C[C@@H](C2CCCCC2)N(C)S3(=O)=O)sc1C(=O)O` [Example 118], less than 100 nM.

On to `CC(C)C[C@@H]1CN(c2ccccc2)c2cc(Nc3ccc(F)cc3)c(-c3ccc(Cl)c(C(=O)O)c3)cc2S(=O)(=O)N1C` [Example 548], for which the EC50 lay in the range of 100 to 1000 nM.

Consider `CCOC(=O)Nc1cc(-c2cc3c(cc2OCCOC)N(c2ccccc2)C[C@@H](C2CCCCC2)N(C)S3(=O)=O)sc1C(=O)O` [Example 517], for which the EC50 was less than 100 nM. With `COc1cc(F)ccc1Oc1cc2c(cc1-c1ccc(F)c(C(=O)O)c1)S(=O)(=O)N(C)[C@H](C1CCCCC1)CN2c1ccccc1` [Example 406], the EC50 is less than 100 nM. As to `CN1[C@H](C2CC2)CN(c2ccccc2)c2cc(Cl)c(-c3ccc(F)c(C(=O)O)c3)cc2S1(=O)=O` [Example 64, (R)-5-(7-chloro-3-cyclopropyl-2-methyl-1,1-dioxido-5-phenyl-2,3,4,5-tetrahydrobenzo[f][1,2,5]thiadiazepin-8-yl)-2-fluorobenzoic acid], the EC50 lay in the range of 100 to 1000 nM. Take `CC(C)C[C@@H]1CN(c2ccccc2)c2cc(Nc3ccccn3)c(-c3ccc(Cl)c(C(=O)O)c3)cc2S(=O)(=O)N1C` [Example 549]: the EC50 lay within 100 to 1000 nM.

With `CC(C)CC1CN(c2ccc(F)cc2)c2cc(Cl)c(-c3cccc(C(=O)O)c3)cc2S(=O)(=O)N1C` (stereo not shown) [Example 331], the EC50 was 100 to 1000 nM.

For `CC(C)CCCCCOc1cc2c(cc1-c1ccc(F)c(C(=O)O)c1)S(=O)(=O)N(C)[C@H](C1CCCCC1)CN2c1ccccc1` [Example 362], the EC50 is less than 100 nM. For `CN1[C@H](C2CCCCC2)CN(c2ccccc2)c2cc(Cl)c(-c3ccc(C(=O)O)c(C(=O)O)c3)cc2S1(=O)=O` [Example 213, (R)-4-(7-chloro-3-cyclohexyl-2-methyl-1,1-dioxido-5-phenyl-2,3,4,5-tetrahydrobenzo[f][1,2,5]thiadiazepin-8-yl)phthalic acid], the EC50 is 100 to 1000 nM. In the case of `CN1[C@H](C2CCCCC2)CN(c2ccccc2)c2cc(O[C@H]3C[C@H](F)C3)c(-c3ccc(F)c(C(=O)O)c3)cc2S1(=O)=O` [Example 381] it was less than 100 nM.

As for `CN1[C@H](C2CCCCC2)CN(c2ccccc2)c2cc(OCCc3cn(C)cn3)c(-c3ccc(F)c(C(=O)O)c3)cc2S1(=O)=O` [Example 392], the concentration for a half-maximal effect (EC50) was more than 1000 nM. In the case of `COc1cc(-c2cc3c(cc2Cl)N(c2ccccc2)C[C@@H](CC(C)C)N(C)S3(=O)=O)cc(C(=O)O)c1F` [Example 179, (R)-5-(7-chloro-3-isobutyl-2-methyl-1,1-dioxido-5-phenyl-2,3,4,5-tetrahydrobenzo[f][1,2,5]thiadiazepin-8-yl)-2-fluoro-3-methoxybenzoic acid] it was 100 to 1000 nM; in that of `CC(C)C[C@@H]1CN(c2ccccc2)c2cc(Cl)c(-c3cccc(P(=O)(O)O)c3)cc2S(=O)(=O)N1C` [Example 233], 100 to 1000 nM; in that of `CN1[C@H](C2CCCCC2)CN(c2ccccc2)c2cc(Cl)c(-c3cc(NC(=O)OCC4CC(F)(F)C4)c(C(=O)O)s3)cc2S1(=O)=O` [Example 253], less than 100 nM. Next, `CN1[C@H](C2CCCCC2)CN(c2ccccc2)c2cc(Cl)c(-c3ccc(F)c(C(=O)O)n3)cc2S1(=O)=O` [Example 141, (R)-6-(7-chloro-3-cyclohexyl-2-methyl-1,1-dioxido-5-phenyl-2,3,4,5-tetrahydrobenzo[f][1,2,5]thiadiazepin-8-yl)-3-fluoropicolinic acid]: 100 to 1000 nM.
